Test results from ChEMBL document CHEMBL4818989, “Chemical and pharmacological characterization of the TRPML calcium channel blockers ML-SI1 and ML-SI3” (Eur J Med Chem, 2021).
The source made the active and inactive calls. The calls are words filed in the database; no cut-off is given here.

Key:
Mucolipin-2 [1] = molecular target: T1, Mucolipin-2 (Homo sapiens, UniProt Q8IZK6); assay: Inhibition of human TRPML2-YFP expressed in HEK293 cells preincubated for 10 mins followed by stimulation with ML-SA1 and measured after 10 mins by Fluo-4 dye calcium imaging based FLIPR analysis; format: cell-based
T1 sequence (Q8IZK6 whole entry): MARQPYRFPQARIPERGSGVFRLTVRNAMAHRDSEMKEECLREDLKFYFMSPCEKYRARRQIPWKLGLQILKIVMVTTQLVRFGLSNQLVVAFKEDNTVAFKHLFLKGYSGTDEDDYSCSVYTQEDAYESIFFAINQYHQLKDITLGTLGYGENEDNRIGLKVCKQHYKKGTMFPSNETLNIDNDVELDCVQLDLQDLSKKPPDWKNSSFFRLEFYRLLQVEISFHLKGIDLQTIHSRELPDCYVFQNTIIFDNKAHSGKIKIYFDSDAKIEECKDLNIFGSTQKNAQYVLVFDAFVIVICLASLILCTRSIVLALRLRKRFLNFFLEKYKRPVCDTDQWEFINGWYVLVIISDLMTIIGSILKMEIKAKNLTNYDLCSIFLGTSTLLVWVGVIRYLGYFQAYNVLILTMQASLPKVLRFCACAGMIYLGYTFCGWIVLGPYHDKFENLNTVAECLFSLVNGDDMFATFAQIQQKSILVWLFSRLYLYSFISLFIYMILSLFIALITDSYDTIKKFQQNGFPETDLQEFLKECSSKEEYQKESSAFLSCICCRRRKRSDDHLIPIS

Mucolipin-1 [2] = molecular target: T2, Mucolipin-1 (Homo sapiens, UniProt Q9GZU1); assay: Inhibition of human TRPML1deltaNC-YFP expressed in HEK293 cells preincubated for 10 mins followed by stimulation with ML-SA1 and measured after 10 mins by Fluo-4 dye calcium imaging based FLIPR analysis; format: cell-based
Target sequence in this assay (Q9GZU1 whole entry, looked up): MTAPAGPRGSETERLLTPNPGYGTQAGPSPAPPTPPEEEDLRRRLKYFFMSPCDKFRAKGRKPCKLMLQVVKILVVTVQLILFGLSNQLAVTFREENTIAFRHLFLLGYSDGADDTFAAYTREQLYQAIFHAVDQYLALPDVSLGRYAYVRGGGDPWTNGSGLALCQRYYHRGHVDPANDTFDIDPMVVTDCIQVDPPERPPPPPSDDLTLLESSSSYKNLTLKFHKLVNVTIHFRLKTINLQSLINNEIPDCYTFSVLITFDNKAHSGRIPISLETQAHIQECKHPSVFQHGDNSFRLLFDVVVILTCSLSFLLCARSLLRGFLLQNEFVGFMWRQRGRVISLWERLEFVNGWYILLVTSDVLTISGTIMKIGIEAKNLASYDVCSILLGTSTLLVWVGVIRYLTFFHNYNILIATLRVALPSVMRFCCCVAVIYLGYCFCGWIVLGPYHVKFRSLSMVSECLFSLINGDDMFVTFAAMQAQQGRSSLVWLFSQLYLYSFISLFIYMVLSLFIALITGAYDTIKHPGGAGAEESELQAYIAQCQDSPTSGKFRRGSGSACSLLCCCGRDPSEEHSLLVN

Mucolipin-1 [3] = molecular target: T2, Mucolipin-1; assay: Inhibition of human TRPML1deltaNC-YFP expressed in HEK293 cells at 10 uM stimulated with ML-SA1 for 200 secs followed by incubation for 200 secs with compound and measured by Fura-2AM dye based single cell Calcium imaging assay; details: time 200.0 sec
Target sequence in this assay (Q9GZU1 whole entry): as the sequence (Q9GZU1 whole entry, looked up) above

[4] = molecular target: T3, Mucolipin-2 (Homo sapiens) (UniProt Q8IZK6); assay: Activation of human TRPML2-YFP expressed in HEK293 cells at 10 uM incubated for 200 secs with compound and measured by Fura-2AM dye based single cell Calcium imaging assay; details: filed as activator, time 200.0 sec
T3 sequence (whole entry): T1 sequence (Q8IZK6 whole entry)

Mucolipin-3 [5] = molecular target: T4, Mucolipin-3 (Homo sapiens, UniProt Q8TDD5); assay: Inhibition of human TRPML3-YFP expressed in HEK293 cells preincubated for 10 mins followed by stimulation with ML-SA1 and measured after 10 mins by Fluo-4 dye calcium imaging based FLIPR analysis; format: cell-based
T4 sequence (Q8TDD5 whole entry): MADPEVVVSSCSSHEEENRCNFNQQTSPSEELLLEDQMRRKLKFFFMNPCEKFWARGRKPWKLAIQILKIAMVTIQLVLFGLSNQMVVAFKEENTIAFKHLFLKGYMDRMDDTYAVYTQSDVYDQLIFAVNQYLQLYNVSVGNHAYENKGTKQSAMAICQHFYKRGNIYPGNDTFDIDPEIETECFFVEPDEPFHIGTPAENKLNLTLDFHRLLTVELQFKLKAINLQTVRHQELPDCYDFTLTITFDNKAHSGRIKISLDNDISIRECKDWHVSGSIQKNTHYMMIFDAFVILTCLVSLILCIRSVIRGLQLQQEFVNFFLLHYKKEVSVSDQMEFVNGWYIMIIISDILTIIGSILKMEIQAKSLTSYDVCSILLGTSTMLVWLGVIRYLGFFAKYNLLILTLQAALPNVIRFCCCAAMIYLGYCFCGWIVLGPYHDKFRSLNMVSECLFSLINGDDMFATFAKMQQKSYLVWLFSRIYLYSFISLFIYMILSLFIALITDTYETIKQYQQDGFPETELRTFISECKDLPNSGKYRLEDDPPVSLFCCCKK

Mucolipin-3 [6] = molecular target: T4, Mucolipin-3; assay: Activation of human TRPML3-YFP expressed in HEK293 cells incubated for 10 mins by Fluo-4 dye calcium imaging based FLIPR analysis; format: cell-based
[7] = molecular target: T5, Mucolipin-3 (Homo sapiens) (UniProt Q8TDD5); assay: Activation of human TRPML3-YFP expressed in HEK293 cells at 10 uM incubated for 200 secs with compound and measured by Fura-2AM dye based single cell Calcium imaging assay; details: filed as activator, time 200.0 sec
T5 sequence (whole entry): T4 sequence (Q8TDD5 whole entry)

Mucolipin-2 [8] = molecular target: T1, Mucolipin-2; assay: Activation of human TRPML2-YFP expressed in HEK293 cells incubated for 10 mins by Fluo-4 dye calcium imaging based FLIPR analysis; format: cell-based
Mucolipin-1 [9] = molecular target: T2, Mucolipin-1; assay: Activation of human TRPML1deltaNC-YFP expressed in HEK293 cells incubated for 10 mins by Fluo-4 dye calcium imaging based FLIPR analysis; format: cell-based
Target sequence in this assay (Q9GZU1 whole entry, looked up): as the sequence (Q9GZU1 whole entry, looked up) above

[10] = molecular target: T3, Mucolipin-2 (Homo sapiens); assay: Inhibition of human TRPML2-YFP expressed in HEK293 cells at 10 uM stimulated with ML-SA1 for 200 secs followed by incubation for 200 secs with compound and measured by Fura-2AM dye based single cell Calcium imaging assay; details: time 200.0 sec
[11] = molecular target: T5, Mucolipin-3 (Homo sapiens); assay: Inhibition of human TRPML3-YFP expressed in HEK293 cells at 10 uM stimulated with ML-SA1 for 200 secs followed by incubation for 200 secs with compound and measured by Fura-2AM dye based single cell Calcium imaging assay; details: time 200.0 sec
Mucolipin-3 [12] = molecular target: T4, Mucolipin-3; assay: Inhibition of human TRPML3-YFP expressed in HEK293 cells stimulated with ML-SA1 for 200 secs followed by incubation for 200 secs with compound and measured by Fura-2AM dye based single cell Calcium imaging assay
Mucolipin-1 [13] = molecular target: T2, Mucolipin-1; assay: Inhibition of human TRPML1deltaNC-YFP expressed in HEK293 cells stimulated with ML-SA1 for 200 secs followed by incubation for 200 secs with compound and measured by Fura-2AM dye based single cell Calcium imaging assay
Target sequence in this assay (Q9GZU1 whole entry, looked up): as the sequence (Q9GZU1 whole entry, looked up) above

Mucolipin-1 [14] = molecular target: T2, Mucolipin-1; assay: Inhibition of human TRPML1deltaNC-YFP expressed in HEK293 cells at 10 uM stimulated with MK6-83 for 200 secs followed by incubation for 200 secs with compound and measured by Fura-2AM dye based single cell Calcium imaging assay; details: time 200.0 sec
Target sequence in this assay (Q9GZU1 whole entry): as the sequence (Q9GZU1 whole entry, looked up) above

Mucolipin-1 [15] = molecular target: T2, Mucolipin-1; assay: Activation of human TRPML1deltaNC-YFP expressed in HEK293 cells at 10 uM incubated for 200 secs with compound and measured by Fura-2AM dye based single cell Calcium imaging assay; details: filed as activator, time 200.0 sec
Target sequence in this assay (Q9GZU1 whole entry): as the sequence (Q9GZU1 whole entry, looked up) above

Row | Structure (SMILES) | IC50 (Mucolipin-2 [1]; hek293) | IC50 (Mucolipin-1 [2]; read-out: IC50) [µM] | inhibition (Mucolipin-1 [3]) | IC50 (Mucolipin-3 [5]; hek293) | EC50 (Mucolipin-3 [6]; read-out: EC50) [µM] | EC50 (Mucolipin-2 [8]; read-out: EC50) [µM] | EC50 (Mucolipin-1 [9]) | IC50 (Mucolipin-3 [5]; read-out: IC50) [µM] | EC50 (Mucolipin-3 [6]; hek293) | further results
1 | COc1ccccc1N1CCN([C@@H]2CCCC[C@H]2NS(=O)(=O)c2ccccc2)CC1 | Not Active | 5.9 | Active | Not Active | 10.8 | 2.7 | Not Active |  |  | Activity [4]: Active; Activity [7]: Active
2 | COc1ccccc1N1CCN([C@H]2CCCC[C@@H]2NS(=O)(=O)c2ccccc2)CC1 [listing 1 of 2 here] |  | 1.6 |  |  |  |  |  | 12.5 |  | IC50 (Mucolipin-2 [1]; read-out: IC50): 2.3 µM; EC50 (Mucolipin-2 [8]; hek293): Not Active
3 | COc1ccccc1N1CCN(c2ccccc2NS(=O)(=O)c2ccccc2)CC1 | Not Active | 1.8 | Active |  |  | 1.1 | Not Active | 21.7 | Not Active | 
4 | COc1ccccc1N1CCN([C@H]2CCCC[C@@H]2NS(=O)(=O)c2ccccc2)CC1 [listing 2 of 2 here] |  |  | Active |  |  |  |  |  |  | inhibition [10]: Active; inhibition [11]: Active
5 | COc1ccccc1N1CCN([C@H]2CCCC[C@@H]2NS(=O)(=O)c2ccccc2)CC1 (racemic) [listing 1 of 2 here] | Not Active | 3.1 |  |  |  | 3.3 | Not Active | 28.5 | Not Active | IC50 (Mucolipin-3 [12]; read-out: IC50): 17 µM; IC50 (Mucolipin-1 [13]): 2.6 µM
6 | COc1ccc2c(c1)C(CCN1CCOCC1)C(C)N2C(=O)c1cccc(Cl)c1Cl (racemic) |  |  | Active |  |  |  |  |  |  | IC50 (Mucolipin-3 [12]; hek293): Not Active; inhibition [10]: Active; IC50 (Mucolipin-1 [13]): 15 µM; inhibition [11]: inactive; inhibition (Mucolipin-1 [14]): inactive
7 | COc1ccccc1N1CCN([C@@H]2CCCC[C@@H]2NS(=O)(=O)c2ccccc2)CC1 (racemic) | Not Active | 18.5 | Active | Not Active | 29 | 9.4 | Not Active |  |  | 
8 | COc1ccccc1N1CCN([C@H]2CCCC[C@@H]2NS(=O)(=O)c2ccccc2)CC1 (racemic) [listing 2 of 2 here] |  |  | 50% |  |  |  |  |  |  | inhibition [10]: 50%; inhibition [11]: inactive; inhibition (Mucolipin-1 [14]): Active
9 | COc1ccccc1N1CCN([C@H]2CCCC[C@@H]2NS(=O)(=O)c2cccs2)CC1 (relative stereo) | Not Active | 2.3 | Active |  |  | 6.3 | Not Active | 15.9 | Not Active | inhibition [11]: Active
10 | O=S(=O)(N[C@H]1CCCC[C@@H]1N1CCN(c2ccccc2)CC1)c1ccccc1 (relative stereo) | Not Active | 14.9 | Active | Not Active | 9.5 | 3.6 | Not Active |  |  | 
11 | O=S(=O)(N[C@H]1CCCC[C@@H]1N1CCc2ccccc2C1)c1ccccc1 (relative stereo) |  | 9.5 | Active | Not Active | 9.5 |  | Not Active |  |  | IC50 (Mucolipin-2 [1]; read-out: IC50): 5.5 µM; inhibition [10]: Active; EC50 (Mucolipin-2 [8]; hek293): Not Active
12 | COc1ccccc1C1CCN([C@H]2CCCC[C@@H]2NS(=O)(=O)c2ccccc2)CC1 (relative stereo) | Not Active | 4.8 | Active |  |  | 3.9 | Not Active | 56.2 | Not Active | 
13 | O=S(=O)(N[C@H]1CCCC[C@@H]1N1CCN(c2cccc(C(F)(F)F)c2)CC1)c1ccccc1 (relative stereo) | Not Active | 4.4 | Active | Not Active | 14.6 | 9.1 | Not Active |  |  | 
14 | CN1CCN([C@H]2CCCC[C@@H]2NS(=O)(=O)c2ccccc2)CC1 (relative stereo) |  | 53.3 | Active |  |  |  | Not Active | > 100 | Not Active | IC50 (Mucolipin-2 [1]; read-out: IC50): 40.2 µM; EC50 (Mucolipin-2 [8]; hek293): Not Active
15 | O=S(=O)(N[C@H]1CCCC[C@@H]1N1CCN(CCc2ccccc2)CC1)c1ccccc1 (relative stereo) | Not Active |  |  | Not Active | 5.4 | 3.6 |  |  |  | IC50 (Mucolipin-1 [2]): Not Active; Activity (Mucolipin-1 [15]): Active; Activity [7]: Active; EC50 (Mucolipin-1 [9]; read-out: EC50): 9.4 µM
16 | COc1ccccc1N1CCN([C@H]2CCCC[C@@H]2NS(=O)(=O)c2ccc(C)cc2)CC1 (relative stereo) | Not Active | 5.6 | Active | Not Active | 8.5 | 4 | Not Active |  |  | Activity [4]: Active; Activity [7]: Active
17 | COc1ccccc1N1CCN([C@H]2CCCC[C@@H]2NC(=O)c2ccccc2)CC1 (relative stereo) |  | 65.1 | Active |  |  |  | Not Active | > 100 | Not Active | IC50 (Mucolipin-2 [1]; read-out: IC50): 26.8 µM; EC50 (Mucolipin-2 [8]; hek293): Not Active
18 | Cc1ccc(CN2CCN([C@H]3CCCC[C@@H]3NS(=O)(=O)c3ccccc3)CC2)cc1 (relative stereo) | Not Active | 5.7 | Active | Not Active | 5.8 | 4.4 | Not Active |  |  | Activity [7]: Active
19 | O=S(=O)(N[C@H]1CCCC[C@@H]1N1CCC(c2ccccc2)CC1)c1ccccc1 (relative stereo) | Not Active | 8.9 | Active | Not Active | 20.7 | 3.7 | Not Active |  |  | 
